Starred links: 1 amine or outer side, 2 acyl side, 3 side chain; linkers in the order of their positions; H or OH if unused. Non-standard residues stand in square brackets, D forms with d. Residues, ends and D or L forms follow the SMILES beside them. *: point of attachment. Benzoyl(5-NH,2-NO2) = O=C(c1cc(N[*:1])ccc1[N+](=O)[O-])[*:2]; pNA = O=[N+]([O-])c1ccc(N*)cc1; Tos = Cc1ccc(S(=O)(=O)*)cc1
How the values were obtained:
Assay type in all cases: biochemical
[1] = system: Thromboplastin C; assay: Hydrolysis of chromogenic substrates by thromboplastin C; settings: Thromboplastin C 5%; substrate 50 μmol/l; after 92 hours at room temperature; 405 nm
Procedure: (§1) Difference in extinction after 92 hours at room temperature of a reagent prepared according to Example 1. The substrate concentration was 50 μmol/l, and the thromboplastins were dissolved in accordance with the statements of the manufacturer and added at a concentration of 5%.
(§2) 4 to 20 ml of human thromboplastin were added to 70 ml of an aqueous solution containing 5.844 g of NaCl, 1.47 g of CaCl2, 11.92 g of HEPES, 250 μg of polybrene® and 67.1 mg of H-D-Phe-Pro-Arg-ANBA-isopropylamide HCl in one liter, pH 7.6, and the mixture was freeze-dried.

[2] = system: Thromboplastin B; assay: Hydrolysis of chromogenic substrates by thromboplastin B; settings: Thromboplastin B 5%; substrate 50 μmol/l; after 92 hours at room temperature; 405 nm
Procedure: as §1, §2

[3] = system: Thromboplastin E; assay: Hydrolysis of chromogenic substrates by thromboplastin E; settings: Thromboplastin E 5%; substrate 50 μmol/l; after 92 hours at room temperature; 405 nm
Procedure: as §1, §2

[4] = system: Thromboplastin F; assay: Hydrolysis of chromogenic substrates by thromboplastin F; settings: Thromboplastin F 5%; substrate 50 μmol/l; after 92 hours at room temperature; 405 nm
Procedure: as §1, §2

[5] = system: Thromboplastin A; assay: Hydrolysis of chromogenic substrates by thromboplastin A; settings: Thromboplastin A 5%; substrate 50 μmol/l; after 92 hours at room temperature; 405 nm
Procedure: as §1, §2

[6] = system: Thromboplastin G; assay: Hydrolysis of chromogenic substrates by thromboplastin G; settings: Thromboplastin G 5%; substrate 50 μmol/l; after 92 hours at room temperature; 405 nm
Procedure: as §1, §2

[7] = system: Thromboplastin D; assay: Hydrolysis of chromogenic substrates by thromboplastin D; settings: Thromboplastin D 5%; substrate 50 μmol/l; after 92 hours at room temperature; 405 nm
Procedure: as §1, §2

[8] = system: thromboplastins of the state of the art; assay: Hydrolysis of chromogenic substrates by thromboplastins; settings: for Stability of a reagent containing the substrate (in words): reagent with thromboplastin having proteolytic activity
Procedure: The substrate concentration was 50 μmol/l, and the thromboplastins were dissolved in accordance with the statements of the manufacturer and added at a concentration of 5%.

Compound	Difference in extinction (hydrolysis of chromogenic substrate) [1]	Difference in extinction (hydrolysis of chromogenic substrate) [2]	Difference in extinction (hydrolysis of chromogenic substrate) [3]	Difference in extinction (hydrolysis of chromogenic substrate) [4]	Difference in extinction (hydrolysis of chromogenic substrate) [5]	Difference in extinction (hydrolysis of chromogenic substrate) [6]	Difference in extinction (hydrolysis of chromogenic substrate) [7]	Stability of a reagent containing the substrate (in words) [8]	Extent of hydrolysis by the thromboplastins (in words) ([8]; extinction at 405 nm, Table 1)
Cc1ccc(S(=O)(=O)NCC(=O)N2CCC[C@H]2C(=O)N[C@@H](CCCNC(=N)N)C(=O)Nc2ccc([N+](=O)[O-])c(C(=O)NC(C)C)c2)cc1 [Tos-Gly-Pro-Arg-ANBA-isopropylamide]	0,030	0,039	0,041	0,029	0,035	0,018	0,023		
CC(C)(C)CNC(=O)c1cc(NC(=O)[C@H](CCCNC(=N)N)NC(=O)[C@@H]2CCCN2C(=O)[C@H](N)Cc2ccccc2)ccc1[N+](=O)[O-] [D-Phe-Pro-Arg-ANBA-neopentylamide]	0,011	0,009	0,014	0,003	0,003	0,002	0,007		
CCCCNC(=O)c1cc(NC(=O)[C@H](CCCNC(=N)N)NC(=O)[C@@H]2CCCN2C(=O)[C@H](N)Cc2ccccc2)ccc1[N+](=O)[O-] [D-Phe-Pro-Arg-ANBA-n-Butylamide]	0,019	0,023	0,030	0,023	0,021	0,012	0,013		
CC(C)NC(=O)c1cc(NC(=O)[C@H](CCCNC(=N)N)NC(=O)[C@@H]2CCCN2C(=O)[C@H](N)Cc2ccccc2)ccc1[N+](=O)[O-] [D-Phe-Pro-Arg-ANBA-isopropylamide, H-D-Phe-Pro-Arg-ANBA-isopropylamide]	0,010	0,016	0,011	0	0,006	0	0,013	stable for a considerably longer time	
CCOC(=O)CNC(=O)c1cc(NC(=O)[C@H](CCCNC(=N)N)NC(=O)[C@@H]2CCCN2C(=O)[C@H](N)Cc2ccccc2)ccc1[N+](=O)[O-] [D-Phe-Pro-Arg-ANBA-Glycine ethyl ester] (H-[dF]PR[Benzoyl(5-NH,2-NO2)]G-OEt)	0,015	0,009	0,008	0,011	0,007	0,003	0,019		
CCOC(=O)CNC(=O)c1cc(NC(=O)[C@H](CCCNC(=N)N)NC(=O)[C@@H]2CCCN2C(=O)CNS(=O)(=O)c2ccc(C)cc2)ccc1[N+](=O)[O-] [Tos-Gly-Pro-Arg-ANBA-Glycine ethyl ester] (Tos-GPR[Benzoyl(5-NH,2-NO2)]G-OEt)	0,028	0,034	0,037	0,023	0,029	0,029	0,026		
C[C@H](NC(=O)CCC(=O)O)C(=O)N[C@@H](C)C(=O)N[C@@H](C)C(=O)Nc1ccc([N+](=O)[O-])cc1 [Suc-(Ala)3-pNA, reference compound]	0,248	0,324	0,178	0,310	0,211	0,202	0,411		
NCCCC[C@H](NC(=O)c1ccccc1)C(=O)Nc1ccc([N+](=O)[O-])cc1 [N-α-Benzoyl-L-Lysine-pNA, reference compound]	0,433	0,525	0,372	0,198	0,319	0,503	0,402		
D-Phe-Pro-Arg-ANBA-Valine methyl ester	0,008	0,031	0	0	0,003	0,002	0,020		
Cc1ccc(S(=O)(=O)NCC(=O)N2CCC[C@H]2C(=O)N[C@@H](CCCNC(=N)N)C(=O)Nc2ccc([N+](=O)[O-])cc2)cc1 [Tos-Gly-Pro-Arg-pNA, reference compound] (Tos-Gly-Pro-Arg-pNA)	0,115	0,143	0,123	0,116	0,190	0,149	0,137	stable for only a very short time	rapid consumption of the substrate
CC(C)C[C@H](N)C(=O)Nc1ccc([N+](=O)[O-])cc1 [Leu-pNA, reference compound]	0,721	0,681	0,871	0,536	0,974	1,124	0,593		
